Results taken from US6635629B2, “3-nitrogen-6,7-dioxygen steroids and uses related thereto” (Inflazyme Pharmaceuticals Ltd., priority 2000, dated 2003).
pIC50: −log10 of the molar value.

What was measured:
Jurkat clone E6.1 cells = test: Antigen-induced (anti-CD3 mAb) calcium flux in Jurkat clone E6.1 cells; assay type: cell-based; details: for Calcium (% inhibition at 20 μM): anti-CD3 mAb 4 μg/mL, Fura 2AM
From the text: Elevation of cytoplasmic calcium concentration is a common and crucial event which follows the activation of many types of cell surface receptors. Increases in intracellular calcium that occur following agonist activation of inositol lipid hydrolysis are the results of calcium release from the endoplasmic reticulum and the influx of calcium through the plasma membrane. Increases in cytosolic calcium concentration are involved in many important cellular responses in the inflammatory process including adhesion, motility, gene expression, proliferation, and degranulation. Changes in intracellular calcium centrations can affect both short and long term cellular responses. An assay method to evaluate a test compound's impact on calcium flux is provided as follows.
The resulting supernatants are discarded and each pellet is washed in 10 mL HBSS. Cell suspensions are accumulated and centrifuged for 5 minutes at 900 RPM to form a cell pellet. The resulting supernatant is discarded and the pellet is resuspended in HBSS at 1×10^7 cells/mL. The cell suspension is transferred to a 20 mm petri dish and incubated at 37° C., 5% CO2 for 20 minutes.
One volume of Fura 2AM is mixed to one volume of detergent Pluronic F127. Cells are labeled with 4 μL of probe solution to each mL of cell suspension. The petri dish is wrapped in aluminum foil to protect from light and placed on a plate shaker for 30 minutes at room temperature.
The following steps are done in the laminar flow hood with the fluorescent lights turned off. The petri dish is removed from the shaker and the labeled cell suspension is transferred to a 15 mL conical tube and washed twice with HBSS as above. The cell pellet is resuspended in 12 mL HBSS and left wrapped in foil for 30 minutes at room temperature. The labeled cell suspension is aliquoted (100 μL/well) into a Dynex 96 well white opaque tissue culture plate. […] Selected compounds were tested for dose related activity. Test samples and activator (anti—CD3 mAb at final concentration of 4 μg/mL, PharMingen) are added manually (50 μL), such that the minimum time to acquire the first data point after stimulation is approximately 30 seconds. The calcium influx response to anti-CD3 mAb is measured as an “end point” assay. The entire plate is read in 100 seconds using a kinetic of 1 second per well.
The plate is read before the addition of anti-CD3 to monitor non-specific effect of samples/drugs. Fluorescence emission is measured at 510 nm with excitation alternating between 340 and 380 every second using an excitation/emission filter pair. Data from these dual wavelengths are represented as a ratio of 2 excitations wavelengths. This ratio is independent of intracellular dye and cell concentrations, enabling real comparison between experiments.

[1] = system: rat mast cell line (RBL-2H3); test: Antigen-induced release of hexosaminidase from a rat mast cell line (RBL-2H3); assay type: cell-based; details: inhibition of DNP-HSA antigen-induced hexosaminidase release; tested at 0.3, 3, 10 and 30 μM; read-out: Hex IC50
Method: The anti-allergic effects of a compound of the present invention was evaluated by measuring its effect on antigen-induced secretion of hexosaminidase from a passively sensitized rat mast cell line. The ability of a test compound to inhibit the release of mast cell granule contents, e.g., histamine and hexosaminidase, is indicative of the anti-allergy and/or anti-asthma activity of the compound. Hexosaminidase is released from the mast cell granule along with histamine and other mediators during antigen challenge. The test is performed as follows.
RBL-2H3 cells are grown in culture and passively sensitized for 1 hour at 37° C. to dinitrophenol (DNP) using anti-human-DNP (IgE). Cells are incubated with test compound for 30 minutes at 37° C. and stimulated with 0.5 μg/ml DNP-HSA (antigen) for 30 minutes. Aliquots of the supernatant are removed and used to measure the amount of hexosaminidase released during challenge with the antigen. […] The effect of each test compound is determined as a percentage of the antigen-induced response (minus background release) obtained in the presence of DMSO alone. These values are used to determine the degrees of inhibition of antigen-induced hexosaminidase release from the cells.

[2] = system: sensitized Brown Norway rats; test: Ovalbumin-induced accumulation of inflammatory cells in lung lavage fluid of sensitized Brown Norway rats; assay type: in vivo, rat; details: 1 mg/kg/day for 4 days, p.o., corn oil vehicle; relative to control animals
Method: The ability of a compound to inhibit the allergen-induced accumulation of inflammatory cells such as eosinophils and neutrophils in the lavage fluid obtained from sensitized animals is indicative of that compound's anti-asthma activity. […] The test is conducted as follows.
Male Brown Norway rats are sensitized to ovalbumin by single intraperitoneal injection of 1 mg ovalbumin adsorbed to 100 mg A(OH)3 (alum) in 1 ml sterile saline (saline control rats receive only sterile saline) on day 1, and allowed to sensitize until day 21. […] Rats are challenged with 0.5% ovalbumin in saline generated using a Devillbis nebulizer for 60 min on day 21.
Forty-eight hrs after challenge, animals are sacrificed with an overdose of intraperitoneally-delivered sodium pentobarbitol and the lungs are lavaged with cold 2×7 ml phosphate buffered saline. The recovered lavage fluid is placed on ice. The bronchoalveolar lavage fluid is centrifuged and the supernatant removed. The pellet is resuspended in phosphate buffered saline at 4° C. Cytospins are prepared and stained for differentiation and enumeration of cell types.
Test compound was administered in 300 μl corn oil (Tables 7 and 8) or water (Table 9), which were used as vehicles. Control animals received 300 μl corn oil or water alone, i.e., no drug. […] A negative value in Table 7, 8, or 9 indicates an exacerbation of the effect over the control animal.

Row | SMILES | Calcium (% inhibition at 20 μM) (Jurkat clone E6.1 cells) [%] | pIC50 [1] | also measured
1 | CCC1(C)CCC2=C1CCC1C2C(O)C(O)C2CC(Nc3ccccc3)CCC21C.Cl (mixture of isomers) [Compound 144] | 13.0 | 5.16 | 
2 | CCC1(C)CCC2=C1CCC1C2C(O)C(O)C2CC(Nc3cccc(C(F)(F)F)c3)CCC21C.Cl (mixture of isomers) [Compound 145] | −0.2 | 4.66 | 
3 | C=C1CCC2C3C(CC[C@]12C)[C@@]1(C)CCC(N)CC1[C@@H](O)[C@@H]3O (stereo partly shown) [Compound 54] | 19.8 |  | % inhibition of eosinophils [2]: −82%; % inhibition of lymphocytes [2]: −7%; % inhibition of neutrophils [2]: −19%
4 | C=C1CCC2C3C(CC[C@]12C)[C@@]1(C)CCC(N)CC1[C@@H](OC)[C@@H]3OC (stereo partly shown) [Compound 80] | 7.4 | 4.97 | 
5 | C=C1CCC2C3C(O)C(O)C4CC(NCc5ccccc5F)CCC4(C)C3CCC12C.CC(=O)O (stereo not shown) [Compound 101] | 16.3 |  | 
6 | C=C1CCC2C3C(O)C(O)C4CC(NCc5cccc(C(F)(F)F)c5)CCC4(C)C3CCC12C.CC(=O)O (stereo not shown) [Compound 102] | 9.5 | 5.00 | 
7 | C=C1CCC2C3C(O)C(O)C4CC(NCc5ccccc5OC)CCC4(C)C3CCC12C.CC(=O)O (stereo not shown) [Compound 103] | 23.7 | 4.95 | 
8 | C=C1CCC2C3C(O)C(O)C4CC(NCc5ccc(OC(F)(F)F)cc5)CCC4(C)C3CCC12C.CC(=O)O (stereo not shown) [Compound 104] | 30.3 | 5.02 | 
9 | C=C1CCC2C3C(O)C(O)C4CC(NCc5cccc(Oc6ccccc6)c5)CCC4(C)C3CCC12C.CC(=O)O (stereo not shown) [Compound 105] | 10.2 | 4.65 | 
10 | C=C1CCC2C3C(O)C(O)C4CC(NCc5cccc([N+](=O)[O-])c5)CCC4(C)C3CCC12C (stereo not shown) [Compound 106] | 8.1 | 5.06 | 
11 | CC=C1CCC2C3C(O)C(O)C4CC(N5CCOCC5)CCC4(C)C3CCC12C.Cl (stereo not shown) [Compound 111] | 53.1 | 5.03 | 
12 | C/C=C1/CCC2C3C(CC[C@]12C)[C@@]1(C)CCC(NC)CC1[C@@H](O)[C@@H]3O (stereo partly shown) [Compound 113] | 45.0 | 5.01 | 
13 | CC=C1CCC2C3C(O)C(O)C4CC(NCCC)CCC4(C)C3CCC12C.Cl (stereo not shown) [Compound 114] | 37.9 |  | 
14 | CC=C1CCC2C3C(O)C(O)C4CC(NCCCCC)CCC4(C)C3CCC12C.Cl (stereo not shown) [Compound 115] | 40.0 | 4.95 | 
15 | CC=C1CCC2C3C(O)C(O)C4CC(NC5CCCC5)CCC4(C)C3CCC12C (stereo not shown) [Compound 116] |  | 5.02 | 
16 | CC(=O)O.CC=C1CCC2C3C(O)C(O)C4CC(NC5CCCCC5)CCC4(C)C3CCC12C (stereo not shown) [Compound 117] | 42.2 | 5.18 | 

Row | SMILES | Calcium (% inhibition at 20 μM) (Jurkat clone E6.1 cells) [%] | pIC50 [1] | also measured
17 | CC(=O)O.CC=C1CCC2C3C(O)C(O)C4CC(N5CCCC5)CCC4(C)C3CCC12C (stereo not shown) [Compound 118] | 41.8 | 4.96 | 
18 | CC=C1CCC2C3C(O)C(O)C4CC(NCCNCCC)CCC4(C)C3CCC12C.Cl.Cl (stereo not shown) [Compound 119] | 54.5 |  | pIC50 (Jurkat clone E6.1 cells; dose response activity examined): ≥ 5.00
19 | CC=C1CCC2C3C(O)C(O)C4CC(NCCN(C)C)CCC4(C)C3CCC12C.Cl.Cl (stereo not shown) [Compound 120] | 44.0 | 5.04 | 
20 | CC(=O)O.CC=C1CCC2C3C(O)C(O)C4CC(N5CCNCC5)CCC4(C)C3CCC12C (stereo not shown) [Compound 121] | 42.4 | 4.84 | 
21 | CC=C1CCC2C3C(O)C(O)C4CC(NCCO)CCC4(C)C3CCC12C.Cl (stereo not shown) [Compound 122] | 31.4 | 4.91 | 
22 | CC=C1CCC2C3C(O)C(O)C4CC(NCCCCCO)CCC4(C)C3CCC12C.Cl (stereo not shown) [Compound 123] | 12.8 | 4.78 | 
23 | CC=C1CCC2C3C(O)C(O)C4CC(NCCNCCO)CCC4(C)C3CCC12C.Cl.Cl (stereo not shown) [Compound 124] | 21.0 |  | % inhibition of eosinophils [2]: −55%; % inhibition of lymphocytes [2]: −26%; % inhibition of neutrophils [2]: −76%
24 | CC=C1CCC2C3C(O)C(O)C4CC(Nc5cccc(C)c5)CCC4(C)C3CCC12C.Cl (stereo not shown) [Compound 125] | 5.7 | 4.40 | 
25 | CC=C1CCC2C3C(O)C(O)C4CC(Nc5ccc(O)cc5)CCC4(C)C3CCC12C.Cl (stereo not shown) [Compound 126] | 45.0 | 5.01 | 
26 | CC=C1CCC2C3C(O)C(O)C4CC(Nc5ccc(S(N)(=O)=O)cc5)CCC4(C)C3CCC12C.Cl (stereo not shown) [Compound 127] | 29.4 | 5.00 | 
27 | C=C1CCC2C3C(CC[C@]12C)[C@@]1(C)CC[C@@H](NC(C)=O)CC1[C@@H](O)[C@@H]3O (stereo partly shown) [Compound 131] |  |  | % inhibition of eosinophils [2]: 16%; % inhibition of lymphocytes [2]: 21%; % inhibition of neutrophils [2]: 57%
28 | C=C1CCC2C3C(CC[C@]12C)[C@@]1(C)CC[C@@H](NC(=O)c2ccccc2)CC1[C@@H](O)[C@@H]3O (stereo partly shown) [Compound 132] | 19.6 | 5.00 | 
29 | C=C1CCC2C3C(CC[C@]12C)[C@@]1(C)CC[C@@H](NS(=O)(=O)C(C)C)CC1[C@@H](O)[C@@H]3O (stereo partly shown) [Compound 133] |  |  | % inhibition of eosinophils [2]: −43%; % inhibition of lymphocytes [2]: 28%; % inhibition of neutrophils [2]: 40%
30 | C=C1CCC2C3C(CC[C@]12C)[C@@]1(C)CC[C@@H](NS(=O)(=O)c2ccccc2)CC1[C@@H](O)[C@@H]3O (stereo partly shown) [Compound 134] | 25.1 | 4.78 | 
31 | Cc1cccc(CNC2CCC3(C)C(C2)C(O)C(O)C2C4=C(CCC23)C(C)(C)CC4)c1.Cl (stereo not shown) [Compound 140] | 21.5 | 4.99 | 
32 | COC1C(OC)C2CC(N)CCC2(C)C2CCC3=C(CCC3(C)C)C12.Cl (stereo not shown) [Compound 148] | 6.6 | 4.53 | 
